Test results reported in ChEMBL document CHEMBL3232942, “Benzophenone C-glucosides and gallotannins from mango tree stem bark with broad-spectrum anti-viral activity” (Bioorg Med Chem, 2014).
Calls of active or inactive are those of the source. No cut-off for these calls is given here.

Key:
[1] = target: Genome polyprotein (Coxsackievirus B3 (strain Nancy)) (UniProt P03313); test: Inhibition of His-6-tagged Coxsackievirus B3 3C protease expressed in Escherichia coli BL21(DE3) using Asp-Glu-EDANS-(5-((2-aminoethyl)amino)naphthalene-1-sulfonic acid)-MSAIFQGPISK-DABCYL (4-((4-(dimethylamino)phenyl)azo)benzoic acid) as peptide substrate at 100 uM by fluorescence-based […] assay
Neuraminidase = Neuraminidase (Influenza A virus, UniProt Q194T1); test: Inhibition of Influenza A virus (A/RI/5+/1957(H2N2)) recombinant neuraminidase using MUNANA as substrate after 30 mins
Genome polyprotein = Genome polyprotein (Coxsackievirus B3 (strain Nancy), UniProt P03313); test: Inhibition of His-6-tagged Coxsackievirus B3 3C protease expressed in Escherichia coli BL21(DE3) using Asp-Glu-EDANS-(5-((2-aminoethyl)amino)naphthalene-1-sulfonic acid)-MSAIFQGPISK-DABCYL (4-((4-(dimethylamino)phenyl)azo)benzoic acid) as peptide substrate by fluorescence-based […] assay
HeLa = test: Cytotoxicity against human HeLa cells assessed as cell viability after 48 hrs by MTT assay; format: cell-based
HepG2 = test: Cytotoxicity against human HepG2 cells assessed as cell viability after 48 hrs by MTT assay; format: cell-based; details: HepG2, 48 h

Compound | inhibition [1] | other results
COc1cc2oc3cc(O)c(O)cc3c(=O)c2c(O)c1[C@@H]1O[C@H](CO)[C@@H](O)[C@H](O)[C@H]1O | 13.3% | –
CO[C@@H]([C@@H]1OC(C(=O)O)=C[C@H](NC(=N)N)[C@H]1NC(C)=O)[C@H](O)CO | – | IC50 (Neuraminidase): 3.1 µM
O=C(OC[C@H]1O[C@@H](OC(=O)c2cc(O)c(O)c(O)c2)[C@H](OC(=O)c2cc(O)c(O)c(O)c2)[C@@H](OC(=O)c2cc(O)c(O)c(O)c2)[C@@H]1OC(=O)c1cc(O)c(O)c(O)c1)c1cc(O)c(O)c(O)c1 [PENTAGALLOYL GLUCOSE] | 100% | IC50 (Neuraminidase): 11.9 µM; IC50 (Genome polyprotein): 1.1 µM; IC50 (HeLa): 356 µM; IC50 (HepG2): 92.4 µM
O=C(O)c1cc(O)c(O)c(O)c1 | inactive | –
COc1cc(O)c(C(=O)c2ccc(O)cc2)c(O)c1[C@@H]1O[C@H](CO)[C@@H](O)[C@H](O)[C@H]1OC(=O)c1ccc(O)cc1 | 27.2% | –
COc1cc(O)c(C(=O)c2ccc(O)cc2)c(O)c1[C@@H]1O[C@H](CO)[C@@H](O)[C@H](O)[C@H]1OC(=O)c1cc(O)c(O)c(O)c1 | 53.8% | –
CCOC(=O)C1=C[C@@H](OC(CC)CC)[C@H](NC(C)=O)[C@@H](N)C1 [OSELTAMIVIR PHOSPHATE] | – | IC50 (Neuraminidase): 0.8 µM
O=c1c2cc(O)c(O)cc2oc2cc(O)c([C@@H]3O[C@H](CO)[C@@H](O)[C@H](O)[C@H]3O)c(O)c12 | 21.4% | –
O=C(OC(=O)c1ccc(O)c(O)c1)c1ccc(O)c(O)c1 | inactive | –
O=C(OC[C@H]1O[C@@H](O)[C@H](OC(=O)c2cc(O)c(O)c(O)c2)[C@@H](OC(=O)c2cc(O)c(O)c(O)c2)[C@@H]1OC(=O)c1cc(O)c(O)c(O)c1)c1cc(O)c(O)c(O)c1 | 100% | IC50 (Neuraminidase): 9.2 µM; IC50 (Genome polyprotein): 2 µM; IC50 (HeLa): 240 µM; IC50 (HepG2): 151 µM
O=C(O[C@@H]1O[C@H](CO)[C@@H](O)[C@H](O)[C@H]1O)c1cc(O)c(O)c(O)c1 | 23.6% | –
COc1cc(O)c(C(=O)c2ccc(O)cc2)c(O)c1[C@@H]1O[C@H](CO)[C@@H](O)[C@H](O)[C@H]1O | 17.5% | –
O=C(O[C@@H]1C[C@](O)(C(=O)O)C[C@@H](O)[C@H]1O)c1cc(O)c(O)c(O)c1 | 29.8% | –
O=c1c2cc(O)c(O)cc2oc2c(-c3c(O)c([C@@H]4O[C@H](CO)[C@@H](O)[C@H](O)[C@H]4O)c(O)c4c(=O)c5cc(O)c(O)cc5oc34)c(O)c([C@@H]3O[C@H](CO)[C@@H](O)[C@H](O)[C@H]3O)c(O)c12 | 46.1% | –
COc1cc(O)c(C(=O)c2ccc(O)cc2)c(O[C@@H]2O[C@H](CO)[C@@H](O)[C@H](O)[C@H]2O)c1 | inactive | –
